Data reported in patent US20090042863A1, “Therapeutic Agent for Diabetes” (Takeda Pharmaceutical Company Limited, priority 2005, published 2009).
Counter-ions that a name gives are not always drawn.

How the values were obtained:
Assay type in all cases: in vivo
db/db mouse [1] = test: Pancreatic insulin content in db/db mice, Experimental Example 2 (voglibose, compound A); settings: male, 6-week-old, powder diet with voglibose 0.001 (w/w)% and/or compound A 0.03 (w/w)% free form for 27 consecutive days, pancreas isolated at day 29, mean ± SD, n=6
Protocol: (§1) First, the mouse pancreas was homogenated in its 10 times weight of 74% ethanol (containing 0.15 mM hydrochloric acid). The obtained homogenate solution was left standing overnight under the shading conditions at 4° C., and centrifuged at 15000 rpm for 5 min. The obtained supernatant was appropriately diluted with PBS(−) (phosphate-buffered saline) containing 0.1% BSA (bovine serum albumin). The insulin content of the diluted solution was measured by radioimmunoassay (trade name: RAT INSULIN RIA KIT, manufactured by RINCO Research, U.S.A.), and the insulin content per pancreatic tissue weight was calculated. […]
In the above-mentioned Groups A-D, pancreas was isolated from the mice at day 29 from the start of the powder feed administration, and the pancreatic insulin content was measured.
(§2) The insulin content per pancreatic tissue weight was calculated in the same manner as in Experimental Example 1. […]

db/db mouse [2] = test: Pancreatic insulin content in db/db mice, Experimental Example 3 (pioglitazone, compound B); settings: male, 6-week-old, powder diet with pioglitazone hydrochloride 0.0075 (w/w)% as pioglitazone and/or compound B 0.03 (w/w)% free form for 26 consecutive days, pancreas isolated at day 28, mean ± SD, n=7
Protocol: as §1
(§3) In the above-mentioned Groups A-D, pancreas was isolated from the mice at day 28 from the start of the powder feed administration, and the pancreatic insulin content was measured.
as §2

db/db mouse [3] = test: Pancreatic insulin content in db/db mice, Experimental Example 4 (pioglitazone, compound C); settings: male, 6-week-old, powder diet with pioglitazone hydrochloride 0.0075 (w/w)% as pioglitazone and/or compound C 0.1 (w/w)% free form for 26 consecutive days, pancreas isolated at day 28, mean ± SD, n=7
Protocol: as §1, §3, §2

Compound | Pancreatic insulin content (db/db mouse [1]) | Pancreatic insulin content (db/db mouse [2]) | Pancreatic insulin content (db/db mouse [3])
Cn1c(=O)cc(N2CCC[C@@H](N)C2)n(Cc2ccccc2C#N)c1=O.O=C(O)c1ccccc1 [compound A, 2-[[6-[(3R)-3-amino-1-piperidinyl]-3,4-dihydro-3-methyl-2,4-dioxo-1(2H)-pyrimidinyl]methyl]benzonitrile benzoate] | 92.0 ± 37.0 ng/mg tissue |  | 
Cn1c(=O)cc(N2CCC[C@@H](N)C2)n(Cc2cc(F)ccc2C#N)c1=O.O=C(O)CCC(=O)O [compound B, 2-[[6-[(3R)-3-amino-1-piperidinyl]-3,4-dihydro-3-methyl-2,4-dioxo-1(2H)-pyrimidinyl]methyl]-4-fluorobenzonitrile succinate] |  | 58.1 ± 17.0 ng/mg tissue | 
N#Cc1ccccc1Cn1c(N2CCC[C@@H](N)C2)ncc(F)c1=O.O=C(O)C(O)C(O)C(=O)O [compound C, 2-[2-(3-(R)-aminopiperidin-1-yl)-5-fluoro-6-oxo-6H-pyrimidin-1-ylmethyl]benzonitrile tartrate] |  |  | 57.2 ± 17.8 ng/mg tissue
CCc1ccc(CCOc2ccc(CC3SC(=O)NC3=O)cc2)nc1 (stereo not drawn) [pioglitazone, pioglitazone hydrochloride] |  | 74.8 ± 21.5 ng/mg tissue | 74.8 ± 21.5 ng/mg tissue
OCC(CO)N[C@H]1C[C@](O)(CO)[C@@H](O)[C@H](O)[C@H]1O [voglibose] | 198.1 ± 169.8 ng/mg tissue |  | 
